{
  "source": "patent US7763426B2",
  "about": "“Probes and methods for detection of Escheridia coli and antibiotic resistance” (priority 2004, dated 2010)",
  "key": {"[1]": {"test_system": "16S rRNA in lysates of uropathogens", "assay": "Species specificity of uropathogen probe pairs with the electrochemical sensor array (Example 1)", "assay_type": "binding", "conditions": "probe pairs of Table 1"}, "[2]": {"test_system": "bacterial 16S rRNA", "assay": "Amperometric detection of bacterial 16S rRNA, statements over several targets (Examples 2, 3)", "assay_type": "binding", "conditions": "previous studies; no gap between hybridization sites", "experimental": "Sensor characterization and surface functional layer preparation. Microfabricated electrochemical sensor arrays with an alkanethiolate self-assembled monolayer (SAM) were obtained from GeneFluidics (Monterey Park, Calif.). SAM integrity was confirmed by cyclic voltammetry (CV) (1) using a 16-channel potentiostat (GeneFluidics). After CV characterization, sensor arrays were washed and dried. Washing steps were carried out by applying a stream of deionized H2O to the sensor surface for approximately 2-3 sec followed by 5 sec of drying under a stream of nitrogen. To functionalize the sensor surface, 2.5 μl of 0.5 U/ml streptavidin (Calbiochem, San Diego, Calif.) in 100 mM phosphate buffered saline, pH 7.4 was added to the alkanethiol activated sensors, incubated for 10 min at room temperature and washed off. Biotinylated capture probes (2.5 μl, 1 μM in GeneFluidics' Probe Diluent) were added to the streptavidin-coated sensors. […]\nAmperometric Detection of bacterial 16S rRNA. […] Amperometric current vs. time was measured using a multichannel potentiostat (GeneFluidics). The voltage was fixed at −200 mV (vs. reference), and the electroreduction current was measured at 60 sec after the HRP redox reaction reached steady state. All samples were analyzed in duplicate. […] Positive signals are determined by comparing the signals with the background using paired T test. […]"}},
  "note": "Entries after “also recorded” stand apart in the source; their conditions may differ. {Fluorescein} = fluorescein label (binding site for anti-fluorescein Fab-HRP); {Biotin} = biotin (capture probe anchor)",
  "data": [
    {"substance": "UNI: Universal Bacterial probe pair: capture 797 (27 mer) SEQ ID NO: 13, detector 766 (31 mer) SEQ ID NO: 14 (DNA 1 CATCGTTTACGGCGTGGACTACCAGGG; DNA 2 TATCTAATCCTGTTTGCTCCCCACGCTTTCG; DNA 1: DNA, 5' {Biotin}, backbone and methylation of C not given here; DNA 2: DNA, 5' {Fluorescein}, backbone and methylation of C not given here)", "values": [
      {"measurement": "Species detected", "setting": "[1]", "value": "Cf, Ea, Ec, Ef, El, Eo, Ko, Kp,; also recorded: Mm, Pa, Pm, Ss, Sa"},
      {"measurement": "Species not detected", "setting": "[1]", "value": "None"},
      {"measurement": "higher signals than the species-specific probes with 6 bp gap", "setting": "[2]", "value": "1.5-4 fold"}
    ]}
  ]
}
